According to PMC10611828 (European Journal of Nuclear Medicine and Molecular Imaging, 2023):
Read-outs that look alike come from different tables or passages of the source.

Key:
[1] = Stability in mouse serum at 37 °C (radio-HPLC); assay type: in vitro ADME; details: read-out: intact radiolabeled ligand (RCP)
Method: (§1) The ^177Lu-labeled peptides were incubated in 300-μL phosphate buffered saline (PBS; Gibco, ThermoFisher, The Netherlands) at 37 °C, and their stability was verified after 1, 4, 24, 48, and 72 h by radio-HPLC (Supplementary Fig. 2). The stability in serum was determined by incubating the radiolabeled compounds into 300 μL of mouse serum (Invitrogen, USA) or human serum (Sigma Aldrich, USA) at 37 °C (Supplementary Fig. 3, 4). At each time point post-incubation, 35 μL of the mixture was added to an Eppendorf tube, and the proteins were precipitated by adding an equal volume of acetonitrile. The tubes were centrifuged at 16,000 rpm, 4 °C for 20 min, and the stability was monitored by radio-HPLC, expressed as the RCP at the different time points.

[2] = Stability in human serum at 37 °C (radio-HPLC); assay type: in vitro ADME; details: read-out: intact radiolabeled ligand (RCP)
Method: as §1

[3] = In vivo biodistribution and clearance in PC-3 tumor-bearing mice; details: male, NMRI-Foxn1 nu/nu, mouse, iv, total radioactivity, i.v.; for tissue uptake at 1 h: 1 h p.i.; for tissue uptake at 4 h: 4 h p.i.; for tissue uptake at 24 h: 24 h p.i.; for tissue uptake at 48 h: 48 h p.i.; for tissue uptake at 72 h: 72 h p.i.
Method: All animal experiments were approved by the Animal Welfare Committee of the Erasmus MC, and all experiments were conducted in accordance to institutional guidelines.
At 1, 4, 24, 48, and 72 h post-injection (p.i.), animals were sedated using 2.5% isoflurane in oxygen, and blood was collected via the orbital vein, after which the animals were euthanized using cervical dislocation. Subsequently, the following organs were collected; the tail, tumor, spleen, liver, pancreas, small intestine, colon, coecum, kidneys, lung, and muscle. […] The collected tumor and organs were weighed, and the radioactivity was measured in the gamma counter. The biodistribution data are expressed as percentage injected dose per gram of tissue (% ID/g). Animal numbers per group are indicated in Supplementary Table 1 and 2.
Statistical analysis was performed using Graphpad Prism version 9.0.0. Outliers were identified using the ROUT method with a Q value of 1%. IC50 curves were determined using non-linear regression.

[4] = PC-3 tumor, read-out: % uptake PC-3 tumor
[5] = gastrointestinal tract, read-out: % uptake gastrointestinal tract
[6] = kidney, read-out: % uptake kidney
[7] = liver, read-out: % uptake liver
[8] = muscle, read-out: % uptake muscle
[9] = pancreas, read-out: % uptake pancreas
[10] = prostate, read-out: % uptake prostate
[11] = spleen, read-out: % uptake spleen

A remaining at 1 h ([1]; 1 h) of 90.9 ± 0.5%, a remaining at 24 h ([1]; 24 h) of 29.6 ± 1.2% and a remaining at 48 h ([1]; 48 h) of 17.1 ± 3.5% were found for `CC(C)C[C@H](NC(=O)C[C@H](O)[C@H](CC(C)C)NC(=O)[C@H](Cc1c[nH]cn1)NC(=O)CNC(=O)[C@@H](NC(=O)[C@H](C)NC(=O)[C@H](Cc1c[nH]c2ccccc12)NC(=O)[C@H](CCC(N)=O)NC(=O)[C@@H](Cc1ccccc1)NC(=O)CN1CCC(NC(=O)CN2CCN(CC(=O)O)CCN(CC(=O)O)CCN(CC(=O)O)CC2)CC1)C(C)C)C(N)=O` [[^177Lu]Lu-RM2, metal not drawn] in this work. The remaining at 72 h ([1]; 72 h) was 5.3 ± 0.9%, the remaining at 1 h ([2]; 1 h) was 96.7 ± 0.7% and the remaining at 4 h ([2]; 4 h) was 95.5 ± 1.1%. For the same compound, the remaining at 24 h ([2]; 24 h) was 94.9 ± 1.5%, the remaining at 48 h ([2]; 48 h) was 92.3 ± 1.9% and the remaining at 72 h ([2]; 72 h) was 88.4 ± 0.6%. For the same compound, the tissue uptake at 1 h [3, 4] was 9.27 ± 1.81 %ID/g, the tissue uptake at 4 h [3, 4] was 9.14 ± 0.94 %ID/g and the tissue uptake at 24 h [3, 4] was 7.32 %ID/g. The tissue uptake at 48 h [3, 4] was 5.47 %ID/g, the tissue uptake at 72 h [3, 4] was 2.97 %ID/g and the tissue uptake at 1 h ([3]; blood, read-out: % uptake blood) was 0.3 %ID/g. It also gave a tissue uptake at 1 h [3, 5] of 1.75 %ID/g, a tissue uptake at 4 h [3, 5] of 0.56 %ID/g and a tissue uptake at 24 h [3, 5] of 0.05 %ID/g. It also gave a tissue uptake at 48 h [3, 5] of 0.03 %ID/g, a tissue uptake at 72 h [3, 5] of 0.01 %ID/g and a tissue uptake at 1 h [3, 6] of 3 %ID/g. The tissue uptake at 4 h [3, 6] was 1.69 %ID/g, the tissue uptake at 24 h [3, 6] was 0.63 %ID/g and the tissue uptake at 48 h [3, 6] was 0.26 %ID/g. It also gave a tissue uptake at 72 h [3, 6] of 0.12 %ID/g, a tissue uptake at 1 h [3, 7] of 0.2 %ID/g and a tissue uptake at 4 h [3, 7] of 0.09 %ID/g. For the same compound, the tissue uptake at 24 h [3, 7] was 0.04 %ID/g, the tissue uptake at 48 h [3, 7] was 0.03 %ID/g and the tissue uptake at 72 h [3, 7] was 0.02 %ID/g. For the same compound, the tissue uptake at 1 h ([3]; lung, read-out: % uptake lungs) was 0.3 %ID/g, the tissue uptake at 4 h ([3]; lung, read-out: % uptake lungs) was 0.04 %ID/g and the tissue uptake at 24 h ([3]; lung, read-out: % uptake lungs) was 0.02 %ID/g. It also gave a tissue uptake at 48 h ([3]; lung, read-out: % uptake lungs) of 0.01 %ID/g, a tissue uptake at 72 h ([3]; lung, read-out: % uptake lungs) of 0.01 %ID/g and a tissue uptake at 1 h [3, 8] of 0.06 %ID/g. For the same compound, the tissue uptake at 4 h [3, 8] was 0.01 %ID/g, the tissue uptake at 24 h [3, 8] was 0.01 %ID/g and the tissue uptake at 1 h [3, 9] was 14.4 ± 2.56 %ID/g. It also gave a tissue uptake at 4 h [3, 9] of 2.07 ± 0.3 %ID/g, a tissue uptake at 24 h [3, 9] of 0.25 %ID/g and a tissue uptake at 48 h [3, 9] of 0.14 %ID/g. For the same compound, the tissue uptake at 72 h [3, 9] was 0.05 %ID/g, the tissue uptake at 1 h [3, 10] was 1.08 %ID/g and the tissue uptake at 4 h [3, 10] was 0.03 %ID/g. The tissue uptake at 24 h [3, 10] was 0.03 %ID/g, the tissue uptake at 48 h [3, 10] was 0.02 %ID/g and the tissue uptake at 72 h [3, 10] was 0.01 %ID/g. For the same compound, the tissue uptake at 1 h [3, 11] was 0.19 %ID/g, the tissue uptake at 4 h [3, 11] was 0.06 %ID/g and the tissue uptake at 24 h [3, 11] was 0.04 %ID/g. The tissue uptake at 48 h [3, 11] was 0.03 %ID/g and the tissue uptake at 72 h [3, 11] was 0.02 %ID/g.
